Holding throughout (experiment): DTP human tumour cell line panel, 48 h
Test [1] has as its system SW-620.
In test [2] the test system is LOX IMVI.
Test [3] has as its system SF-295.
The test system of test [4] is SF-268.
Test [5] has as its system 786-0.
Test [6] relates to SK-MEL-2.
The subject of test [7] is M14.
Test [8] relates to Hs-578T.
Test [9] deals with K562.
Test [10] relates to NCI-H23.
Test [11] concerns MCF7.
Test [12] has as its system BT-549.
Test [13] concerns SK-MEL-28.
Test [14] deals with UACC-257.
For test [15], the system named is OVCAR-8.
In test [16] the test system is OVCAR-5.
Test [17] has as its system A498.
In test [18] the test system is SNB-75.
Test [19] concerns SF-539.

Values joined by “and” are separate entries in the source; they are usually repeats but may differ in a detail not shown here. Identical values can stand only once.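 Method: 48-hour compound exposure of cells in 96-well plates, five concentrations, linear interpolation of endpoints. GI50 is the concentration that inhibits growth by half.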 Active and inactive are the calls of the source. Rule as the data show it: active = GI50 up to about 1.1 µM and inactive = higher.

The GI50 is the concentration at which growth is held to half of that of the control.

`O=C(NCCNCCNC(=O)C(F)(F)F)C(F)(F)F`: the GI50 in test [1], in test [2], in test [3], in [4], in test [5] and in [6] was > 100 µM (inactive) throughout. Also, the GI50 in test [7], in test [8], in [9], in [10], in [11] and in [12] was > 100 µM (inactive) throughout. The GI50 in test [13], in test [14], in [15] and in test [16] was > 100 µM (inactive) each time.

In the case of `CC1=NNC(=O)C1C1(C(=O)O)CC(c2c[nH]c3ccccc23)=NC(=S)N1` (centres undefined), the GI50 is 38.5 µM (inactive) in [1]; 17.5 µM (inactive) in test [2]; 19.4 µM (inactive) in test [3]; 32.1 µM (inactive) in test [4]; 28.3 µM (inactive) in test [5]; 18.4 µM (inactive) in [6]. The GI50 was 94.8 µM (inactive) in test [17]; 16.9 µM (inactive) in test [7]; 16.6 µM (inactive) in [18]; 15.2 µM (inactive) in [8]; 25.4 µM (inactive) in [9]; 24.5 µM (inactive) in test [19]. Further, the GI50 in test [10] was 22.1 µM (inactive); in test [12], 96.4 µM (inactive); in test [13], 47.1 µM (inactive); in test [14], 27.6 µM (inactive); in test [15], 39.4 µM (inactive); in [16] it was > 100 µM (inactive).

As to `CC1OC(OC2C(OC(=O)[C@]34CCC(C)(C)C[C@H]3C3=CC[C@@H]5[C@@]6(C)CC[C@H](OC7OC(C(=O)O)C(O)C(O)C7O)C(C)(C)[C@@H]6CC[C@@]5(C)[C@]3(C)C[C@H]4O)OCC(O)C2O)C(O)C(O)C1OC1OCC(O)C(O)C1O` (some centres undefined), the GI50 was 13 µM (inactive) and 16.3 µM (inactive) in test [1]; 15.5 µM (inactive) and 10.7 µM (inactive) in test [2]; 10.1 µM (inactive) and 15.5 µM (inactive) in test [3]; 11.6 µM (inactive) and 19.3 µM (inactive) in test [4]; 14.8 µM (inactive) and 12.6 µM (inactive) in [5]; 2.54 µM (inactive) and 1.72 µM (inactive) in [17]. The GI50 in [7] was 13.7 µM (inactive) and 8.59 µM (inactive); in test [18], 15.9 µM (inactive) and 16.9 µM (inactive); in [8], 19.8 µM (inactive) and 21.3 µM (inactive); in test [9], 16.4 µM (inactive) and 14.6 µM (inactive); in test [10] it was 5.31 µM (inactive) and 6.5 µM (inactive); in [12], 12.2 µM (inactive) and 13.5 µM (inactive). Moreover, the GI50 was 16.8 µM (inactive) and 16.4 µM (inactive) in [14]; 10.5 µM (inactive) and 14.9 µM (inactive) in [16].

`Nc1cccc(Nc2nc3ccccc3nc2NS(=O)(=O)c2ccccc2)c1`: the GI50 in test [1] is 18.4 µM (inactive); in test [2], 22.7 µM (inactive); in test [3] it was 27.5 µM (inactive); in test [4] it was 55.2 µM (inactive); in test [5] it was 29 µM (inactive); in [6] it was 15.7 µM (inactive). The GI50 in [7] was 26.2 µM (inactive); in test [18] it was 36.2 µM (inactive); in test [8], 41.7 µM (inactive); in test [9], 21.1 µM (inactive); in test [19], 19.1 µM (inactive); in test [10], 12.9 µM (inactive). Also, the GI50 is 33.6 µM (inactive) in [11]; 6.65 µM (inactive) in test [12]; 18.3 µM (inactive) in test [13]; 31.3 µM (inactive) in [14]; 30 µM (inactive) in test [15]; 30.3 µM (inactive) in test [16].

As to `CNC(=O)OCc1c(COC(=O)NC)c(-c2ccc(Cl)c(Cl)c2)n2c1SCC2`, the GI50 in test [1] is 10.8 µM (inactive); in test [2], 12.4 µM (inactive); in test [3] it was 13.6 µM (inactive); in test [4], 13.3 µM (inactive); in test [5] it was 16.7 µM (inactive); in [6], 11.7 µM (inactive). The GI50 was 0.836 µM (active) in test [17]; 18.7 µM (inactive) in [7]; 8.77 µM (inactive) in [18]; 21 µM (inactive) in test [8]; 11 µM (inactive) in test [9]; 15.5 µM (inactive) in test [19]. The GI50 is 21 µM (inactive) in [10]; 13 µM (inactive) in [11]; 10.8 µM (inactive) in test [13]; 10.4 µM (inactive) in [14]; 3.85 µM (inactive) in test [15]; 4.06 µM (inactive) in test [16].

Take `NC1=Nc2ccccc2Sc2cccc(F)c21`: the GI50 was > 100 µM (inactive) in test [1]; 99.5 µM (inactive) in test [2]; 40.4 µM (inactive) in [3]; > 100 µM (inactive) in [4]; > 100 µM (inactive) in test [5]; > 100 µM (inactive) in test [6]. Further, the GI50 in [17] was 34.4 µM (inactive); in [7] it was 50.9 µM (inactive); in [18] it was 46.5 µM (inactive); in test [9], 37.2 µM (inactive); in [19], > 100 µM (inactive); in test [10], 48.6 µM (inactive). Besides, the GI50 in [11] is 65 µM (inactive); in test [12], 95.3 µM (inactive); in test [13], > 100 µM (inactive); in test [14] it was 46.3 µM (inactive); in [15], > 100 µM (inactive); in test [16], > 100 µM (inactive).

On to `CCCN1CN(c2ccccc2)C2(CCN(CCCC(=O)c3ccc(F)cc3)CC2)C1=O`, for which the GI50 in test [1] was 5.15 µM (inactive); in test [2] it was 4.41 µM (inactive); in test [3], 11 µM (inactive); in test [4], 5.56 µM (inactive); in test [5], 5.15 µM (inactive); in test [6], 11.6 µM (inactive). Further, the GI50 in test [17] was 0.933 µM (active); in test [7], 12.4 µM (inactive); in test [18], 15 µM (inactive); in [8], 13.2 µM (inactive); in test [9], 16.3 µM (inactive); in test [19], 4.49 µM (inactive). Also, the GI50 was 4.12 µM (inactive) in test [10]; 0.6 µM (active) in test [11]; 19.2 µM (inactive) in test [13]; 0.405 µM (active) in test [14]; 16.7 µM (inactive) in [15]; 5.06 µM (inactive) in test [16].

Regarding `CCCSc1ccc2[nH]c(/N=C/c3ccccc3)cc2c1`, the GI50 in test [1] was 23.1 µM (inactive); in test [2] it was 17.4 µM (inactive); in test [4], 19.7 µM (inactive); in test [5], 19.1 µM (inactive); in test [6], 16.6 µM (inactive); in [17] it was 28.8 µM (inactive). Further, the GI50 in test [7] was 25.5 µM (inactive); in test [18], 20.5 µM (inactive); in test [8], 27.9 µM (inactive); in test [9], 8.34 µM (inactive); in test [19] it was 20.5 µM (inactive); in test [10], 41.7 µM (inactive). The GI50 in test [12] is 33.7 µM (inactive); in test [13], 23.7 µM (inactive); in [14], 19.7 µM (inactive); in test [15], 23.3 µM (inactive); in test [16], 40.1 µM (inactive).

On to `COc1ccc2[nH]cc(CCNC(=O)[C@H](Cc3ccc(O)cc3)NC(=O)[C@@H](NCC(F)(F)F)C(C)C)c2c1`, for which the GI50 in [1] is > 100 µM (inactive); in [2], 25.2 µM (inactive); in [3], 39.7 µM (inactive); in test [5] it was > 100 µM (inactive); in test [6], 58.2 µM (inactive); in test [7], > 100 µM (inactive). The GI50 in test [8] was 31 µM (inactive); in test [9] it was 71.6 µM (inactive); in test [19] it was > 100 µM (inactive); in test [10], > 100 µM (inactive); in test [11] it was 35.5 µM (inactive); in [12] it was 67.5 µM (inactive). The GI50 in [13] was 65.5 µM (inactive); in test [14], 62.5 µM (inactive); in test [15], 76 µM (inactive); in test [16] it was > 100 µM (inactive).

With `COc1ccc(S(=O)(=O)Nc2ccc(-c3csc(N4C(=O)/C(=C/C=C\c5ccccc5)N=C4c4ccccc4)n3)cc2)cc1Cl`, the GI50 in test [1] was 43 µM (inactive); in test [2], 19.8 µM (inactive); in [3] it was 38.5 µM (inactive); in [4], 19.1 µM (inactive); in test [5], 31.3 µM (inactive); in test [6] it was 22.6 µM (inactive). Besides, the GI50 in test [17] was 22.5 µM (inactive); in test [7], 27.6 µM (inactive); in [18], 33.4 µM (inactive); in [8] it was 29.9 µM (inactive); in test [9], 35.2 µM (inactive); in test [19], 36.6 µM (inactive). In addition, the GI50 in test [10] is 18.9 µM (inactive); in test [11] it was 32.4 µM (inactive); in test [13], 59.7 µM (inactive); in test [14], 33 µM (inactive); in test [15], 23.2 µM (inactive); in test [16], 38.6 µM (inactive).

For the compound `COc1cc(O)c2c(=O)cc(-c3ccc(O)cc3O)oc2c1CC=C(C)C` [ARTOCARPETIN A], the GI50 is 24.3 µM (inactive) in test [1]; 11.9 µM (inactive) in [2]; 12.9 µM (inactive) in [3]; 17.4 µM (inactive) in [4]; 26.6 µM (inactive) in [5]; 17.2 µM (inactive) in test [6]. Moreover, the GI50 in [17] was 22.1 µM (inactive); in [7], 13.8 µM (inactive); in [18], 20.7 µM (inactive); in test [8], 28.4 µM (inactive); in test [9] it was 17 µM (inactive); in test [19], 18.1 µM (inactive). The GI50 in test [10] was 17.6 µM (inactive); in test [11], 20.3 µM (inactive); in [13], 29.1 µM (inactive); in test [14], 28.4 µM (inactive); in test [15], 16.9 µM (inactive); in test [16], > 100 µM (inactive).

(Values after ChEMBL document CHEMBL1201862, “PubChem BioAssay data set” (2004).)
